In paper PMC4850273 (mBio, 2016):

Molecular target: T1, SGBP-A (Bacteroides ovatus, UniProt A7LXT5)
T1 sequence (A7LXT5 28-546): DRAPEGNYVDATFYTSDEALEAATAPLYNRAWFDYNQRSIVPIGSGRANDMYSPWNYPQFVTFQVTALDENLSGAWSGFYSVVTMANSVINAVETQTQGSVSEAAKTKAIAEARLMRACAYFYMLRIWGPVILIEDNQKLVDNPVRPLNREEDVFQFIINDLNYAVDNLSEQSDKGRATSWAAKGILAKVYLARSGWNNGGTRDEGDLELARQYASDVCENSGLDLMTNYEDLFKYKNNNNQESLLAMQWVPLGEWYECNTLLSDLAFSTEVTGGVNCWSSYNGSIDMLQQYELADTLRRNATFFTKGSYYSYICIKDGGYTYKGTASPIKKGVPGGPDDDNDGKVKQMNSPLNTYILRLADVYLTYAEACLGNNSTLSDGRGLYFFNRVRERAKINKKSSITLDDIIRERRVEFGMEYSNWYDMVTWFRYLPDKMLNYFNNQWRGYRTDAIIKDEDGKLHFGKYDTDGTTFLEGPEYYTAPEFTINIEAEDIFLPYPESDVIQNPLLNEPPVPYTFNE
Test: ITC
Type: binding
Settings: 25 °C, 20 mM HEPES, 100 mM NaCl, pH 7.0; two titrations

OC[C@H]1O[C@@H](O[C@H]2[C@H](O)[C@@H](O)[C@H](O[C@H]3[C@H](O)[C@@H](O)[C@H](O[C@H]4[C@H](O)[C@@H](O)[C@H](O[C@H]5[C@H](O)[C@@H](O)[C@H](O[C@H]6[C@H](O)[C@@H](O)C(O)O[C@@H]6CO)O[C@@H]5CO)O[C@@H]4CO)O[C@@H]3CO)O[C@@H]2CO)[C@H](O)[C@@H](O)[C@@H]1O (stereo partly shown) [Cellohexaose]
Ka (M^-1) / SGBP-A: 568.0 ± 291.0
